The values that follow are results of earlier work, collected in patent publication US20230047393A1 (EWHA DrugDesignHouse Co.,Ltd., priority 2021, published 2023).

For series [1], the system named is laser-induced CNV in retina of mice. The note with it: day 14 after laser-induced CNV formation, vs PBS treated control (p<0.05, n=5 per group); cited from earlier work.
For a further series, the system named is mouse B16 melanoma model. The settings on record: mouse B16 melanoma model, with enhanced CTL responses; cited from earlier work.
Another series has as its system rabbit PVR trauma model. The note with it: intravitreal injection; cited from earlier work.
The subject of series [2] is human lens epithelial cells line SRA01/04. The note with it: SRA01/04 cells, nontoxic concentrations; cited from earlier work.
For series [3], the system named is TFG-β2-treated trabecular meshwork cell cultures. The settings on record: cited from earlier work.
A further series relates to rabbit GFS model. The note with it: cited from earlier work.
In series [4] the test system is TFG-β2-treated perfused human anterior segments. The note with it: cited from earlier work.
Series [5] deals with rabbit model of trabeculectomy. The settings on record: cited from earlier work.

`Cc1cccc(-c2nn3c(c2-c2ccnc4ccc(C(N)=O)cc24)CCC3)n1` [LY-2157299, reference compound]: the “neovascular area in retina” value in series [1] was “reduces”. Further, the progression of melanoma result with mouse B16 melanoma model is recorded as “suppress”.
Consider `c1ccc(-c2[nH]ncc2-c2ccnc3ccccc23)nc1` [LY-364947], for which the “PVR development and subsequent tractional retinal detachment” value with rabbit PVR trauma model is recorded as “prevents”.
Consider `Cc1ccc(=O)n(-c2ccccc2)c1` [Pirfenidone], for which the “TGF-β-induced proliferation, migration, and EMT” value in series [2] is given as “inhibits”.
Turning to `NC(=O)c1ccc(-c2nc(-c3ccc4c(c3)OCO4)c(-c3ccccn3)[nH]2)cc1` [SB-431542], the “levels of fibronectin and plasminogen activator inhibitor-1 (PAI-1)” value in series [3] is on record as “reduces”. Also, the “post-surgical scarring and fibrosis after GFS” value in the series on rabbit GFS model is “decreases”. The level of fibronectin result in series [4] was “reduces”.
As for `Cc1cccc(-c2[nH]c(C(C)(C)C)nc2-c2ccc3c(c2)OCO3)n1` [SB-505124], in series [5], the TFG-β activity result was “inhibited” and the bleb survival result was “promoted”. Further, the “ocular scarring following GFS” value in the series with rabbit GFS model was “prevents”.
